Consider 2 molecules from patent publication US20260240850A1, “Compositions and Methods for Treating MALT1 Associated Diseases” (Rarefied Biosciences, Inc., priority 2023, published 2026).

In one test the target is T1, full-length human MALT1 (Homo sapiens, UniProt Q9UDY8).
T1 construct: Recombinant full-length human MALT1 protein was expressed and purified; made in house
T1 sequence (Q9UDY8 1-824): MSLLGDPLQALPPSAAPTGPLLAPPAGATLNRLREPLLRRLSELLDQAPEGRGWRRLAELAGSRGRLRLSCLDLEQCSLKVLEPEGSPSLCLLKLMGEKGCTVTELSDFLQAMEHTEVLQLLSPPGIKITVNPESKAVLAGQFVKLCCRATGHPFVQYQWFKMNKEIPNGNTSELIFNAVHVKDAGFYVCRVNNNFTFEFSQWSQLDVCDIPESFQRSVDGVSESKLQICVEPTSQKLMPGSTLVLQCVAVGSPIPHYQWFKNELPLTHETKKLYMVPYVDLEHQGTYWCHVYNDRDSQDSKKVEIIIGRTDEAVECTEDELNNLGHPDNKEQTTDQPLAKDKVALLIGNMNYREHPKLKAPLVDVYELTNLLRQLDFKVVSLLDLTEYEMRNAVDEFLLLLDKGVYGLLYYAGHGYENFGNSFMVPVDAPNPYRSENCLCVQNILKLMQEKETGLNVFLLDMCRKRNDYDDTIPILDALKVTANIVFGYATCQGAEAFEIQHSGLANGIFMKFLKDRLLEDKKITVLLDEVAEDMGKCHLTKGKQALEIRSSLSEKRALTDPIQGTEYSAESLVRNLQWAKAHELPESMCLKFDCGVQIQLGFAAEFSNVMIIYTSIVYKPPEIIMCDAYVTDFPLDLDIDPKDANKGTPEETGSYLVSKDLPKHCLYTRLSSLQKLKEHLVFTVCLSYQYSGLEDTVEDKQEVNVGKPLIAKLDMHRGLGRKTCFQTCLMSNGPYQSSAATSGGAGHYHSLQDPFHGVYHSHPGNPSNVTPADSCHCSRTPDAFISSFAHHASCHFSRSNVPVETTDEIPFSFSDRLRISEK
Description: MALT1 cleavage of HOIL1 (Example 5). Format: biochemical. The conditions noted are these: HOIL1 0.05 μg/μL with MALT1, 2 h at 37° C.; gel electrophoresis/immunoblot. The protocol: Recombinant full-length human MALT1 protein was expressed and purified. C-terminal Myc-FLAG-tagged full-length human HOIL1 was obtained from Origene. HOIL1 protein (0.05 μg/μL) is incubated with different concentrations of MALT1 in assay buffer (200 mM Tris-HCl, 0.8 M Na citrate, 0.1 mM EGTA, 0.05% CHAPS, 1 mM DTT, pH 7.4) for 2 h at 37° C. Cleavage of HOIL1 was analyzed by gel electrophoresis using a 4-12% Bis-Tris SDS-polyacrylamide (PAGE) gradient gel (Life Technologies). The presence of a small fragment was confirmed by immunoblotting with an N-terminal antibody (anti-N-terminal HOIL1; HPA024185; Sigma). Total HOIL1 was observed using a C-terminal directed antibody (anti-FLAG, clone M2, Sigma). These assays are performed with both the cleavable HOIL1 and, as a negative control, a non-cleavable HOIL1 (where Lys is substituted for Arg165).
Background: In western blotting, separated proteins are transferred to a membrane and probed.

Test [1] deals with mTor pathway (e.g., mTORc1 and/or mTORc2) in primary T cells. In words: mTor pathway activation in stimulated primary T cells, pAkt/pS6 staining (Example 3). It counts as cell-based. Conditions: primary T cells after anti-CD3/anti-CD28 activation. The method, then:
Primary T cells are stimulated to activation and cultured in the presence of IL-2. For stimulation, cells are preincubated with anti-CD3F and anti-CD28 on ice and washed. Cells were stimulated by crosslinking the anti-CD3 antibody with a secondary antibody (e.g., anti-mouse IgG for 10 min) in complete T cell media and then fixed with pre-warmed fixation buffer. Cells are then washed with FACS buffer and permeabilized with permeabilization buffer pre-chilled to −20° C. and incubated for 30 min on ice. Cells are washed and then stained with the following antibodies or appropriate isotype controls anti-pAkt (Ser473) and anti-pS6 (Ser240/244).
MALT1 inhibitors (e.g., Compounds 1.1, 1.26, 1.27, 1.30, 1.33, 2.1, and/or 2.4) are incubated with the primary T cells after activation.

The test system of test [2] is Jurkat cells engineered with the E134G, C49Y, or G123D CARD11 gain of function (GOF) mutant; κB-GFP readout of NFκB signaling. In words: NF-κB-GFP reporter in Jurkat cells engineered with CARD11 gain of function mutants (Example 6). Format: cell-based. The conditions noted are these: C49Y or G123D CARD11, all three mutants, dose dependent from about 100 nM to 5 μM. The protocol:
Jurkat cells were engineered with the E134G, C49Y, or G123D CARD11 gain of function (GOF) mutant. The Jurkat cells included a reporter gene (κB-GFP) that acts as a readout of NFκB signaling.
Jurkat cells bearing GOF E134G, C49Y, or G123D CARD11 had elevated baseline activation of NF-κB-GFP. MALT1 inhibitors (e.g., Compound 1.1 or 2.4) were incubated with the above engineered Jurkat cells.

Test [3] has as its system T cells that lack endogenous CARD11 and bear transfected CARD11 gain-of-function mutations; κB-GFP readout of NFκB signaling. In words: NF-κB-GFP reporter in T cells transfected with CARD11 gain-of-function cDNA (Example 1). Format: cell-based. Conditions: T cells with CARD11 GOF variants; baseline and after anti-CD3 or PMA/ionomycin; flow cytometry. The method, then: MALT1 inhibitors (e.g., Compounds 1.1, 1.26, 1.27, 1.30, 1.33, 2.1, and/or 2.4) are incubated with T cells that lack endogenous CARD11 and bear transiently transfected CARD11 cDNA bearing gain-of-function mutations. An optional variation is co-transfecting 50:50 a copy of the wildtype CARD11 gene with the CARD11 gain of function mutant. The T-cells include a reporter gene (κB-GFP) that acts as a readout of NFκB signaling. The expression of NF-κB-GFP at baseline and after anti-CD3, or PMA/ionomycin stimulation is measured.
T-Cells bearing GOF variants of CARD11 have elevated baseline activation of NF-κB-GFP, and higher still after stimulation, which is assessed by flow cytometry.

Test [4] has as its target T2, proteolytic function of MALT1 (cleavage of CYLD) (Homo sapiens, UniProt Q9UDY8).
T2 construct: endogenous in cells; host or cells: Jurkat cells bearing GOF E134G, C49Y or G123D CARD11
T2 sequence (Q9UDY8 1-824): T1 sequence (Q9UDY8 1-824)
In words: CYLD cleavage in Jurkat cells bearing GOF CARD11 (Example 6). It counts as cell-based. Conditions: Jurkat cells with GOF E134G, C49Y or G123D CARD11; dose dependent in the range of about 100 nM to 10 μM. The protocol:
Jurkat cells bearing GOF E134G, C49Y, or G123D CARD11 were also assessed for cleavage of CYLD as a measure of the proteolytic function of MALT1. In the absence of inhibitors, the Jurkat cells with the GOF CARD11 mutants cleaved CYLD.

Another test relates to patients with BENTA. Description: Clinical trial of MALT1 inhibitors for BENTA (Example 2). It counts as in vivo. Conditions: oral once daily, 25 mg/day up to 1000 mg/day. The protocol: MALT1 inhibitors (e.g., Compounds 1.1, 1.26, 1.27, 1.30, 1.33, 2.1, and/or 2.4) are used to treat patients with BENTA. MALT1 inhibitors (e.g., Compounds 1.1, 1.26, 1.27, 1.30, 1.33, 2.1, and/or 2.4) are formulated in an oral dosage form and administered to patients once daily at a starting dose of 25 mg/day. Alternatively, the daily dose is escalated from 25 mg/day to 1000 mg/day.

For test [5], the system named is epithelial cells (e.g., HEK293 cells) bearing CARD14 gain-of-function mutations; κB-GFP readout of NFκB signaling. Description: NF-κB-GFP reporter in epithelial cells transfected with CARD14 gain-of-function cDNA (Example 4). Format: cell-based. The conditions noted are these: epithelial cells with CARD14 GOF variants; flow cytometry. The method, then:
MALT1 inhibitors (e.g., Compounds 1.1, 1.26, 1.27, 1.30, 1.33, 2.1, and/or 2.4) are incubated with epithelial cells (e.g., HEK293 cells) that lack endogenous CARD14 and bear transiently transfected CARD14 cDNA bearing gain-of-function mutations. The epithelial cells include a reporter gene (κB-GFP) that acts as a readout of NFκB signaling. The expression of NF-κB-GFP at baseline and after anti-CD3, or PMA/ionomycin stimulation is measured.
Epithelial cells bearing gain of function variants of CARD14 have elevated baseline activation of NF-κB-GFP, and higher still after stimulation, which is assessed by flow cytometry.
In general terms: Flow cytometry measures light scatter and fluorescence of single cells or particles in a stream.

Regarding `CN(C(=O)[C@H]1CC[C@H](C(=O)O)CC1)[C@@H](c1ccc(Nc2cnn(-c3ccccn3)c2C(F)(F)F)cc1)C(F)(F)F` [Compound 2.4], the “cleavage of HOIL1” value at full-length human MALT1 was “cleavage of HOIL1 is reduced”. In addition, the “mTor pathway (mTORc1 and/or mTORc2) activation” value in test [1] is listed as “suppress mTor pathway (e.g., mTORc1 and/or mTORc2) activation”. In addition, the values for the NF-κB-GFP expression result in test [2], in test [3] and in test [5] were “reduced NF-κB-GFP expression in a dose dependent fashion”, “lowered NF-κB-GFP expression” and “lowered NF-κB-GFP expression”, respectively. Further, the CYLD cleavage entry in test [4] is on record as “suppress this CYLD cleavage in a dose dependent manner”. For the same molecule, in the test with patients with BENTA, the BENTA symptoms result is “amelioration of their BENTA symptoms”. For the same molecule, in the test on patients with BENTA, the “Jun/Fos, NF-κB and/or mTor pathway activation in patients” value is “reduced Jun/Fos, and/or NF-κB and/or a mTor pathway (e.g., mTORc1 and/or mTORc2) activation”.

With `CO[C@@H](C)c1c(Nc2ccc([C@H](N(C)C(=O)C3CCS(=O)(=O)CC3)C(F)(F)F)cc2)cnc2nc(Cl)nn12` [Compound 1.1, N-[(1S)-1-[4-({2-chloro-7-[(1S)-1-methoxyethyl]-[1,2,4]triazolo[1,5-a]pyrimidin-6-yl}amino)phenyl]-2,2,2-trifluoroethyl]-N-methyl-1,1-dioxo-1λ^6-thiane-4-carboxamide], at full-length human MALT1, the “cleavage of HOIL1” value is listed as “cleavage of HOIL1 is reduced”. Further, in test [1], the “mTor pathway (mTORc1 and/or mTORc2) activation” value is given as “suppress mTor pathway (e.g., mTORc1 and/or mTORc2) activation”. In addition, the NF-κB-GFP expression result is “reduced NF-κB-GFP expression in a dose dependent fashion” in test [2], “lowered NF-κB-GFP expression” in test [3] and “lowered NF-κB-GFP expression” in test [5]. Moreover, in test [4], the CYLD cleavage result is “suppress this CYLD cleavage in a dose dependent manner”. For the same molecule, the BENTA symptoms entry with patients with BENTA is reported as “amelioration of their BENTA symptoms”. In addition, the “Jun/Fos, NF-κB and/or mTor pathway activation in patients” value in the test on patients with BENTA is “reduced Jun/Fos, and/or NF-κB and/or a mTor pathway (e.g., mTORc1 and/or mTORc2) activation”.
